{"source": "patent US4132778A", "about": "“Antibiotic A-32887” (Eli Lilly and Company, priority 1977, dated 1979)", "key": {"[1]": {"test_system": "Actinomyces israelii", "assay": "Standard agar-dilution assay, anaerobic bacteria, Table IX", "type": "cell-based", "details": "24-hour incubation", "procedure": "(§1) Table IX summarizes the MIC's at which A-32887 (Na-K salt) inhibits various anaerobic bacteria, as determined by standard agar-dilution assay. End points were read after 24-hour incubation."}, "[2]": {"test_system": "Bacteriodes fragilis ssp fragilis 111", "assay": "Standard agar-dilution assay, anaerobic bacteria, Table IX", "type": "cell-based", "details": "24-hour incubation", "procedure": "as §1"}, "[3]": {"test_system": "Bacteriodes melaninogenicus 1856/28", "assay": "Standard agar-dilution assay, anaerobic bacteria, Table IX", "type": "cell-based", "details": "24-hour incubation", "procedure": "as §1"}, "[4]": {"test_system": "Bacteriodes vulgatis", "assay": "Standard agar-dilution assay, anaerobic bacteria, Table IX", "type": "cell-based", "details": "24-hour incubation", "procedure": "as §1"}, "[5]": {"test_system": "Clostridium septicum", "assay": "Standard agar-dilution assay, anaerobic bacteria, Table IX", "type": "cell-based", "details": "24-hour incubation", "procedure": "as §1"}, "[6]": {"test_system": "Peptococcus asaccharolyticus", "assay": "Standard agar-dilution assay, anaerobic bacteria, Table IX", "type": "cell-based", "details": "24-hour incubation"}, "[7]": {"test_system": "E. tenella AND E. acervulina", "assay": "Anticoccidial feeding test in chicks, E. tenella and E. acervulina (Table XII)", "type": "in vivo", "parameters": "Average Lesion Score, Intestinal / Average Lesion Score, Cecal: scale not given here", "details": "for Percent Mortality: due to coccidiosis; for Percent Weight Gain: normal controls = 100%", "procedure": "^1 6 replicates; 5 birds each\n^2 Infection inoculum 48 hours post-medication onset"}, "[8]": {"test_system": "ruminal propionate concentration", "assay": "Ruminal VFA in fistulated feed-lot cattle (Table XV)", "type": "in vivo", "details": "30 g/ton, 24 days", "source_text": "The procedure used in testing cattle in this manner is also described in Raun's U.S. Pat. No. 3,839,557 (see Example 9). Table XV summarizes the results of such a test with A-32887 (Na-K salt) wherein five feed-lot cattle weighing approximately 425 kg. were in each group and the mean percent increases in ruminal propionate concentration were averaged over four analyses in a 24-day treatment period."}, "[9]": {"test_system": "E. tenella, E. maxima and E. acervulina", "assay": "Anticoccidial feeding test in chicks, E. tenella, E. maxima and E. acervulina (Table XIII)", "details": "for Percent Mortality: due to coccidiosis; for Percent Weight Gain: per survivor"}}}
{"smiles": "CO[C@H]1CC[C@H](OC2[C@@H](C)[C@@](C)(O)O[C@H]([C@H]3CC[C@H]([C@@H]4CC[C@H]([C@@]5(C)O[C@]6(O[C@H](C[C@@H]7O[C@](O)([C@@H](O)C(=O)O)[C@@H](C)[C@H](OC)[C@@]7(C)OC)C[C@@H](OC)[C@H]6C)[C@H](C)[C@H]5OC)O4)O3)[C@H]2C)O[C@@H]1C.[K+].[Na+]", "note": "(some centres unmarked) [A-32887 (Na-K salt)]", "values": [{"measurement": "MIC", "setting": "[1]", "value": "≤ 0.5", "unit": "µg/mL"}, {"measurement": "MIC", "setting": "[2]", "value": 2, "unit": "µg/mL"}, {"measurement": "MIC", "setting": "[3]", "value": 32, "unit": "µg/mL"}, {"measurement": "MIC", "setting": "[4]", "value": 4, "unit": "µg/mL"}, {"measurement": "MIC", "setting": "[5]", "value": "≤ 0.5", "unit": "µg/mL"}, {"measurement": "MIC", "setting": "[6]", "value": "≤ 0.5", "unit": "µg/mL"}, {"measurement": "Average Lesion Score, Cecal", "setting": "[7]; 62 ppm", "value": 0.1}, {"measurement": "Average Lesion Score, Intestinal", "setting": "[7]; 62 ppm", "value": 0.9}, {"measurement": "Percent Mortality", "setting": "[7]; 62 ppm", "value": 0, "unit": "%"}, {"measurement": "Percent Weight Gain", "setting": "[7]; 62 ppm", "value": 97, "unit": "%"}, {"measurement": "Average Lesion Score, Cecal", "setting": "[7]; 77 ppm", "value": 0}, {"measurement": "Average Lesion Score, Intestinal", "setting": "[7]; 77 ppm", "value": 0.7}, {"measurement": "Percent Mortality", "setting": "[7]; 77 ppm", "value": 0, "unit": "%"}, {"measurement": "Percent Weight Gain", "setting": "[7]; 77 ppm", "value": 90, "unit": "%"}, {"measurement": "Average Lesion Score, Cecal", "setting": "[7]; 100 ppm", "value": 0.1}, {"measurement": "Average Lesion Score, Intestinal", "setting": "[7]; 100 ppm", "value": 0.6}, {"measurement": "Percent Mortality", "setting": "[7]; 100 ppm", "value": 0, "unit": "%"}, {"measurement": "Percent Weight Gain", "setting": "[7]; 100 ppm", "value": 85, "unit": "%"}, {"measurement": "Average Lesion Score, Cecal", "setting": "[7]; 121 ppm", "value": 0}, {"measurement": "Average Lesion Score, Intestinal", "setting": "[7]; 121 ppm", "value": 0.3}, {"measurement": "Percent Mortality", "setting": "[7]; 121 ppm", "value": 0, "unit": "%"}, {"measurement": "Percent Weight Gain", "setting": "[7]; 121 ppm", "value": 73, "unit": "%"}, {"measurement": "Molar % Butyrate", "setting": "[8]", "value": 9.6, "unit": "Molar %"}, {"measurement": "Total VFA", "setting": "[8]", "value": 79.6, "unit": "mM/l."}, {"measurement": "Average Lesion Score, Cecal", "setting": "[9]; 25 ppm", "value": 3.9}, {"measurement": "Average Lesion Score, Intestinal", "setting": "[9]; 25 ppm", "value": 1.1}, {"measurement": "Percent Mortality", "setting": "[9]; 25 ppm", "value": 35, "unit": "%"}, {"measurement": "Percent Weight Gain", "setting": "[9]; 25 ppm", "value": 57, "unit": "%"}, {"measurement": "Average Lesion Score, Cecal", "setting": "[9]; 50 ppm", "value": 3.8}, {"measurement": "Average Lesion Score, Intestinal", "setting": "[9]; 50 ppm", "value": 1.8}, {"measurement": "Percent Mortality", "setting": "[9]; 50 ppm", "value": 0, "unit": "%"}, {"measurement": "Percent Weight Gain", "setting": "[9]; 50 ppm", "value": 79, "unit": "%"}, {"measurement": "Average Lesion Score, Cecal", "setting": "[9]; 75 ppm", "value": 2.0}, {"measurement": "Average Lesion Score, Intestinal", "setting": "[9]; 75 ppm", "value": 0.9}, {"measurement": "Percent Mortality", "setting": "[9]; 75 ppm", "value": 0, "unit": "%"}, {"measurement": "Percent Weight Gain", "setting": "[9]; 75 ppm", "value": 90, "unit": "%"}, {"measurement": "Average Lesion Score, Cecal", "setting": "[9]; 100 ppm", "value": 0.1}, {"measurement": "Average Lesion Score, Intestinal", "setting": "[9]; 100 ppm", "value": 0}, {"measurement": "Percent Mortality", "setting": "[9]; 100 ppm", "value": 0, "unit": "%"}, {"measurement": "Feed/Gain", "setting": "[9]; 100 ppm, pens without deaths only", "value": 1.50}, {"measurement": "Percent Weight Gain", "setting": "[9]; 100 ppm", "value": 93, "unit": "%"}]}
